{"source": "patent KR20230168537A", "about": "“유파틸린을 포함하는 대장암 예방 또는 치료용 약학적 조성물” (고려대학교 산학협력단, priority 2022, dated 2023)", "assay_type_in_all_cases": "cell-based", "key": {"[1]": {"tested_on": "HCT116", "experiment": "BrdU cell proliferation assay", "conditions": "Homo sapiens, HCT-116; HCT116, 25 μM or more, 48 h; read-out: reduction of cell proliferation"}, "[2]": {"tested_on": "HT29", "experiment": "BrdU cell proliferation assay", "conditions": "Homo sapiens, HT-29; HT29, 50 μM or more, 48 h; read-out: reduction of cell proliferation"}, "[3]": {"tested_on": "HCT116", "experiment": "MTT cell viability assay"}, "[4]": {"tested_on": "HT29", "experiment": "MTT cell viability assay"}, "[5]": {"tested_on": "HCT116", "experiment": "Spheroid culture (hanging drop)", "conditions": "HCT116, dose-dependent"}, "[6]": {"tested_on": "HT29", "experiment": "Spheroid culture (hanging drop)", "conditions": "HT29, 50 μM"}, "[7]": {"tested_on": "HCT116", "experiment": "Annexin V/PI apoptosis assay", "conditions": "Homo sapiens, HCT-116, 48 h, read-out: increase in apoptosis versus control"}, "[8]": {"tested_on": "HT29", "experiment": "Annexin V/PI apoptosis assay", "conditions": "Homo sapiens, HT-29, 48 h, read-out: increase in apoptosis versus control"}, "[9]": {"tested_on": "HCT116", "experiment": "TUNEL assay, DNA fragmentation", "conditions": "HCT116, 48 h"}, "[10]": {"tested_on": "HT29", "experiment": "TUNEL assay, DNA fragmentation", "conditions": "HT29, 48 h"}, "[11]": {"tested_on": "HCT116", "experiment": "Mitochondrial membrane potential (JC-1)", "conditions": "48 h"}, "[12]": {"tested_on": "HT29", "experiment": "Mitochondrial membrane potential (JC-1)", "conditions": "HT29, 100 μM, 48 h"}, "[13]": {"tested_on": "BCL-xL", "experiment": "Western blot, apoptosis-related protein", "conditions": "colorectal cancer cells, 24 h"}, "[14]": {"tested_on": "BAK", "experiment": "Western blot, apoptosis-related protein"}, "[15]": {"tested_on": "cytochrome c", "experiment": "Western blot, apoptosis-related protein"}, "[16]": {"tested_on": "colorectal cancer cells (대장암세포)", "experiment": "Cell cycle analysis (PI, flow cytometry)", "conditions": "100 μM, 48 h"}, "[17]": {"tested_on": "HCT116", "experiment": "ROS production (DCFH-DA)"}, "[18]": {"tested_on": "HT29", "experiment": "ROS production (DCFH-DA)"}, "[19]": {"tested_on": "AKT", "experiment": "Western blot, signalling protein phosphorylation", "conditions": "HCT116 and HT29 cells"}, "[20]": {"tested_on": "P70S6K", "experiment": "Western blot, signalling protein phosphorylation", "conditions": "HCT116 and HT29 cells"}, "[21]": {"tested_on": "S6", "experiment": "Western blot, signalling protein phosphorylation", "conditions": "HCT116 and HT29 cells"}, "[22]": {"tested_on": "ERK", "experiment": "Western blot, signalling protein phosphorylation", "conditions": "HCT116 and HT29 cells"}, "[23]": {"tested_on": "P90RSK", "experiment": "Western blot, signalling protein phosphorylation", "conditions": "HCT116 and HT29 cells"}, "[24]": {"tested_on": "P38", "experiment": "Western blot, signalling protein phosphorylation", "conditions": "HCT116 and HT29 cells"}, "[25]": {"tested_on": "JNK", "experiment": "Western blot, signalling protein phosphorylation", "conditions": "HCT116 and HT29 cells"}, "[26]": {"tested_on": "IRE1α", "experiment": "Western blot, ER stress-related protein"}, "[27]": {"tested_on": "eIF2α", "experiment": "Western blot, ER stress-related protein", "conditions": "HCT116"}, "[28]": {"tested_on": "GRP78", "experiment": "Western blot, ER stress-related protein", "conditions": "HCT116"}, "[29]": {"tested_on": "LC3BⅡ", "experiment": "Western blot, autophagy-related protein"}, "[30]": {"tested_on": "ATG5", "experiment": "Western blot, autophagy-related protein", "conditions": "HT29"}, "[31]": {"tested_on": "P62", "experiment": "Western blot, autophagy-related protein", "conditions": "HT29"}, "[32]": {"tested_on": "HCT116", "experiment": "Transwell invasion assay", "conditions": "Homo sapiens, HCT-116; HCT116, 50 μM, 16 h; read-out: reduction in number of cells passing through Transwell"}, "[33]": {"tested_on": "HT29", "experiment": "Transwell invasion assay", "conditions": "Homo sapiens, HT-29; HT29, 50 μM, 16 h; read-out: reduction in number of cells passing through Transwell"}, "[34]": {"tested_on": "HCT116", "experiment": "Cell migration assay", "conditions": "HCT116, 24 h"}, "[35]": {"tested_on": "HT29", "experiment": "Cell migration assay", "conditions": "HT29, 24 h"}}, "data": [{"molecule": "COc1ccc(-c2cc(=O)c3c(O)c(OC)c(O)cc3o2)cc1OC", "note": "[유파틸린, 5,7-Dihydroxy-3', 4', 6-trimethoxyflavone]", "values": [{"measurement": "inhibition at 25 µM", "setting": "[1]", "value": "≥ 50", "unit": "%"}, {"measurement": "inhibition at 50 µM", "setting": "[2]", "value": "≥ 50", "unit": "%"}, {"measurement": "reduction of cell viability", "setting": "[3]; HCT116, 25 μM or more", "value": "≥ 50", "unit": "%"}, {"measurement": "reduction of cell viability", "setting": "[4]; HT29, 100 μM or more", "value": "≥ 50", "unit": "%"}, {"measurement": "spheroid density", "setting": "[5]", "value": "용량의존적으로 스페로이드의 전체 면적 및 밀도를 감소"}, {"measurement": "spheroid total area", "setting": "[5]", "value": "용량의존적으로 스페로이드의 전체 면적 및 밀도를 감소"}, {"measurement": "spheroid density", "setting": "[6]", "value": "유의적으로 감소"}, {"measurement": "fold induction at 50 µM", "setting": "[7]; HCT116, 50 μM", "value": 4.4}, {"measurement": "fold induction at 100 µM", "setting": "[7]; HCT116, 100 μM", "value": 13.2}, {"measurement": "fold induction at 50 µM", "setting": "[8]; HT29, 50 μM", "value": 1.6}, {"measurement": "fold induction at 100 µM", "setting": "[8]; HT29, 100 μM", "value": 1.7}, {"measurement": "frequency of DNA fragmentation", "setting": "[9]", "value": "DNA 단편화의 빈도를 증가"}, {"measurement": "frequency of DNA fragmentation", "setting": "[10]", "value": "DNA 단편화의 빈도를 증가"}, {"measurement": "decrease in mitochondrial membrane potential", "setting": "[11]; HCT116, 50 μM", "value": 2.0, "unit": "fold"}, {"measurement": "decrease in mitochondrial membrane potential", "setting": "[11]; HCT116, 100 μM", "value": 2.6, "unit": "fold"}, {"measurement": "decrease in mitochondrial membrane potential", "setting": "[12]", "value": 1.5, "unit": "fold"}, {"measurement": "BCL-xL expression", "setting": "[13]", "value": "발현을 저해"}, {"measurement": "BAK expression", "setting": "[14]; colorectal cancer cells, 24 h", "value": "발현을 증가"}, {"measurement": "cytochrome c expression", "setting": "[15]; colorectal cancer cells, 24 h", "value": "발현을 증가"}, {"measurement": "proportion of S phase", "setting": "[16]", "value": "S기의 비율을 감소"}, {"measurement": "proportion of SubG1 phase", "setting": "[16]", "value": "유의적으로 증가"}, {"measurement": "DCF fluorescence", "setting": "[17]; HCT116", "value": "형광을 증가"}, {"measurement": "fold induction at 50 µM", "setting": "[17]; Homo sapiens, HCT-116, HCT116, 50 μM, 1 h, read-out: increase in ROS production", "value": 15.8}, {"measurement": "DCF fluorescence", "setting": "[18]; HT29", "value": "형광을 증가"}, {"measurement": "fold induction at 50 µM", "setting": "[18]; Homo sapiens, HT-29, HT29, 50 μM, 1 h, read-out: increase in ROS production", "value": 5.6}, {"measurement": "AKT phosphorylation", "setting": "[19]", "value": "인산화를 억제"}, {"measurement": "P70S6K phosphorylation", "setting": "[20]", "value": "인산화를 억제"}, {"measurement": "S6 phosphorylation", "setting": "[21]", "value": "인산화를 억제"}, {"measurement": "ERK phosphorylation", "setting": "[22]", "value": "인산화를 유도"}, {"measurement": "P90RSK phosphorylation", "setting": "[23]", "value": "인산화를 유도"}, {"measurement": "P38 phosphorylation", "setting": "[24]", "value": "인산화 역시 증가"}, {"measurement": "JNK phosphorylation", "setting": "[25]", "value": "인산화 역시 증가"}, {"measurement": "IRE1α expression", "setting": "[26]; HCT116", "value": "발현을 증가"}, {"measurement": "IRE1 expression", "setting": "[26]; HT29, only IRE1 increased among the ER stress proteins", "value": "IRE1의 발현만 증가"}, {"measurement": "phosphorylated eIF2α expression", "setting": "[27]", "value": "발현을 증가"}, {"measurement": "GRP78 expression", "setting": "[28]", "value": "발현을 증가"}, {"measurement": "LC3BⅡ expression", "setting": "[29]; HCT116", "value": "발현을 증가"}, {"measurement": "LC3BⅡ expression", "setting": "[29]; HT29", "value": "발현을 증가"}, {"measurement": "ATG5 expression", "setting": "[30]", "value": "발현을 증가"}, {"measurement": "P62 expression", "setting": "[31]", "value": "발현을 증가"}, {"measurement": "inhibition at 50 µM", "setting": "[32]", "value": 97.2, "unit": "%"}, {"measurement": "inhibition at 50 µM", "setting": "[33]", "value": 42, "unit": "%"}, {"measurement": "cell migration", "setting": "[34]", "value": "세포 이주성을 현저하게 감소"}, {"measurement": "cell migration", "setting": "[35]", "value": "세포 이주성을 현저하게 감소"}]}, {"molecule": "CCc1c2c(nc3ccc(OC(=O)N4CCC(N5CCCCC5)CC4)cc13)-c1cc3c(c(=O)n1C2)COC(=O)[C@]3(O)CC", "note": "[Irinotecan]", "values": [{"measurement": "cell viability", "setting": "[3]; human, hct116 cells, 5 µM", "value": 66.6, "unit": "%"}, {"measurement": "cell viability", "setting": "[3]; human, hct116 cells, 10 µM", "value": 52.0, "unit": "%"}, {"measurement": "cell viability", "setting": "[3]; human, hct116 cells, 20 µM", "value": 43.9, "unit": "%"}, {"measurement": "cell viability", "setting": "[3]; human, hct116 cells, 40 µM", "value": 28.9, "unit": "%"}, {"measurement": "cell viability", "setting": "[4]; human, ht29 cells, 5 µM", "value": 81.4, "unit": "%"}, {"measurement": "cell viability", "setting": "[4]; human, ht29 cells, 10 µM", "value": 60.9, "unit": "%"}, {"measurement": "cell viability", "setting": "[4]; human, ht29 cells, 20 µM", "value": 50.1, "unit": "%"}, {"measurement": "cell viability", "setting": "[4]; human, ht29 cells, 40 µM", "value": 30.1, "unit": "%"}]}, {"molecule": "O=c1[nH]cc(F)c(=O)[nH]1", "note": "[5-FU, 5-fluorouracil]", "values": [{"measurement": "cell viability", "setting": "[3]; HCT116, anticancer drug 5 μM alone", "value": 74.2, "unit": "%"}, {"measurement": "cell viability", "setting": "[3]; HCT116, anticancer drug 10 μM alone", "value": 71.6, "unit": "%"}, {"measurement": "cell viability", "setting": "[3]; HCT116, anticancer drug 20 μM alone", "value": 66.2, "unit": "%"}, {"measurement": "cell viability", "setting": "[3]; HCT116, anticancer drug 40 μM alone", "value": 55.4, "unit": "%"}, {"measurement": "cell viability", "setting": "[4]; HT29, anticancer drug 5 μM alone", "value": 69.0, "unit": "%"}, {"measurement": "cell viability", "setting": "[4]; HT29, anticancer drug 10 μM alone", "value": 64.1, "unit": "%"}, {"measurement": "cell viability", "setting": "[4]; HT29, anticancer drug 20 μM alone", "value": 56.5, "unit": "%"}, {"measurement": "cell viability", "setting": "[4]; HT29, anticancer drug 40 μM alone", "value": 50.9, "unit": "%"}, {"measurement": "BAK expression", "setting": "[14]; 5-FU-resistant HCT116", "value": "발현에는 영향을 미치지 못한"}, {"measurement": "cytochrome c expression", "setting": "[15]; 5-FU-resistant HCT116", "value": "발현에는 영향을 미치지 못한"}]}]}
